± gives the expanded uncertainty stated by the source.
Assay: mn = molality of the nth substance listed, in mol/kg
Details: 101.3 kPa, Liquid

In the case of `NCCCC(=O)O` [4-aminobutanoic acid] + O, the speed of sound (278.15 K, Frequency=2 MHz, Linear variable-path acoustic interferometer, m1 = 0.0495) is reported as 1431.4 ± 1.7 m/s, the speed of sound (278.15 K, Frequency=2 MHz, Linear variable-path acoustic interferometer, m1 = 0.0732) is reported as 1433.1 ± 1.7 m/s and the speed of sound (278.15 K, Frequency=2 MHz, Linear variable-path acoustic interferometer, m1 = 0.0959) is reported as 1435.4 ± 1.7 m/s. For the same molecule, the speed of sound (278.15 K, Frequency=2 MHz, Linear variable-path acoustic interferometer, m1 = 0.1193) was 1436.9 ± 1.7 m/s, the speed of sound (278.15 K, Frequency=2 MHz, Linear variable-path acoustic interferometer, m1 = 0.1412) was 1439 ± 1.7 m/s and the speed of sound (278.15 K, Frequency=2 MHz, Linear variable-path acoustic interferometer, m1 = 0.1828) was 1442.1 ± 1.7 m/s. The speed of sound (278.15 K, Frequency=2 MHz, Linear variable-path acoustic interferometer, m1 = 0.2085) was 1444.1 ± 1.8 m/s, the speed of sound (278.15 K, Frequency=2 MHz, Linear variable-path acoustic interferometer, m1 = 0.2388) was 1446.9 ± 1.8 m/s and the speed of sound (278.15 K, Frequency=2 MHz, Linear variable-path acoustic interferometer, m1 = 0.2699) was 1449.7 ± 1.8 m/s. It also gave a speed of sound (278.15 K, Frequency=2 MHz, Linear variable-path acoustic interferometer, m1 = 0.2922) of 1452.3 ± 1.8 m/s, a speed of sound (278.15 K, Frequency=2 MHz, Linear variable-path acoustic interferometer, m1 = 0.3224) of 1455.4 ± 1.8 m/s and a speed of sound (278.15 K, Frequency=2 MHz, Linear variable-path acoustic interferometer, m1 = 0.3534) of 1457.4 ± 1.8 m/s. For the same molecule, the mass density (278.15 K, Pycnometric method, m1 = 0.0495) was 1001.55 ± 0.28 kg/m3, the mass density (278.15 K, Pycnometric method, m1 = 0.0732) was 1002.25 ± 0.28 kg/m3 and the mass density (278.15 K, Pycnometric method, m1 = 0.0959) was 1002.93 ± 0.28 kg/m3. The mass density (278.15 K, Pycnometric method, m1 = 0.1193) was 1003.65 ± 0.29 kg/m3, the mass density (278.15 K, Pycnometric method, m1 = 0.1412) was 1004.35 ± 0.29 kg/m3 and the mass density (278.15 K, Pycnometric method, m1 = 0.1828) was 1005.72 ± 0.3 kg/m3. For the same molecule, the mass density (278.15 K, Pycnometric method, m1 = 0.2085) was 1006.55 ± 0.31 kg/m3, the mass density (278.15 K, Pycnometric method, m1 = 0.2388) was 1007.5 ± 0.32 kg/m3 and the mass density (278.15 K, Pycnometric method, m1 = 0.2699) was 1008.41 ± 0.32 kg/m3. The mass density (278.15 K, Pycnometric method, m1 = 0.2922) was 1009.03 ± 0.33 kg/m3, the mass density (278.15 K, Pycnometric method, m1 = 0.3224) was 1009.87 ± 0.34 kg/m3 and the mass density (278.15 K, Pycnometric method, m1 = 0.3534) was 1010.83 ± 0.36 kg/m3. It also gave a speed of sound (288.15 K, Frequency=3 MHz, Sing-around technique in a fixed-path interferometer, m1 = 0.0554) of 1470.3 ± 1.2 m/s, a speed of sound (288.15 K, Frequency=3 MHz, Sing-around technique in a fixed-path interferometer, m1 = 0.0877) of 1472.6 ± 1.2 m/s and a speed of sound (288.15 K, Frequency=3 MHz, Sing-around technique in a fixed-path interferometer, m1 = 0.0989) of 1473.5 ± 1.2 m/s. It also gave a speed of sound (288.15 K, Frequency=3 MHz, Sing-around technique in a fixed-path interferometer, m1 = 0.1173) of 1474.9 ± 1.2 m/s, a speed of sound (288.15 K, Frequency=3 MHz, Sing-around technique in a fixed-path interferometer, m1 = 0.1538) of 1479 ± 1.3 m/s and a speed of sound (288.15 K, Frequency=3 MHz, Sing-around technique in a fixed-path interferometer, m1 = 0.1809) of 1481.1 ± 1.2 m/s. For the same molecule, the speed of sound (288.15 K, Frequency=3 MHz, Sing-around technique in a fixed-path interferometer, m1 = 0.211) was 1483 ± 1.2 m/s, the speed of sound (288.15 K, Frequency=3 MHz, Sing-around technique in a fixed-path interferometer, m1 = 0.2389) was 1484.6 ± 1.3 m/s and the speed of sound (288.15 K, Frequency=3 MHz, Sing-around technique in a fixed-path interferometer, m1 = 0.2692) was 1486.5 ± 1.3 m/s. The speed of sound (288.15 K, Frequency=3 MHz, Sing-around technique in a fixed-path interferometer, m1 = 0.2861) was 1489.5 ± 1.4 m/s, the speed of sound (288.15 K, Frequency=3 MHz, Sing-around technique in a fixed-path interferometer, m1 = 0.3181) was 1492.3 ± 1.3 m/s and the speed of sound (288.15 K, Frequency=3 MHz, Sing-around technique in a fixed-path interferometer, m1 = 0.3496) was 1494.9 ± 1.4 m/s. The mass density (288.15 K, Vibrating tube method, m1 = 0.0554) was 1000.83 ± 0.11 kg/m3, the mass density (288.15 K, Vibrating tube method, m1 = 0.0877) was 1001.66 ± 0.12 kg/m3 and the mass density (288.15 K, Vibrating tube method, m1 = 0.0989) was 1002.15 ± 0.13 kg/m3. The mass density (288.15 K, Vibrating tube method, m1 = 0.1173) was 1002.71 ± 0.12 kg/m3, the mass density (288.15 K, Vibrating tube method, m1 = 0.1538) was 1003.54 ± 0.13 kg/m3 and the mass density (288.15 K, Vibrating tube method, m1 = 0.1809) was 1004.28 ± 0.15 kg/m3. It also gave a mass density (288.15 K, Vibrating tube method, m1 = 0.211) of 1005.14 ± 0.17 kg/m3, a mass density (288.15 K, Vibrating tube method, m1 = 0.2389) of 1006.01 ± 0.18 kg/m3 and a mass density (288.15 K, Vibrating tube method, m1 = 0.2692) of 1006.87 ± 0.19 kg/m3. It also gave a mass density (288.15 K, Vibrating tube method, m1 = 0.2861) of 1007.43 ± 0.2 kg/m3, a mass density (288.15 K, Vibrating tube method, m1 = 0.3181) of 1008.36 ± 0.23 kg/m3 and a mass density (288.15 K, Vibrating tube method, m1 = 0.3496) of 1009.41 ± 0.26 kg/m3. The speed of sound (298.15 K, Frequency=3 MHz, Sing-around technique in a fixed-path interferometer, m1 = 0.0494) was 1501.1 ± 1.2 m/s, the speed of sound (298.15 K, Frequency=3 MHz, Sing-around technique in a fixed-path interferometer, m1 = 0.0781) was 1503.4 ± 1.2 m/s and the speed of sound (298.15 K, Frequency=3 MHz, Sing-around technique in a fixed-path interferometer, m1 = 0.1017) was 1505.1 ± 1.2 m/s. For the same molecule, the speed of sound (298.15 K, Frequency=3 MHz, Sing-around technique in a fixed-path interferometer, m1 = 0.1227) was 1506.8 ± 1.2 m/s, the speed of sound (298.15 K, Frequency=3 MHz, Sing-around technique in a fixed-path interferometer, m1 = 0.1469) was 1508.9 ± 1.3 m/s and the speed of sound (298.15 K, Frequency=3 MHz, Sing-around technique in a fixed-path interferometer, m1 = 0.1846) was 1511.8 ± 1.3 m/s. It also gave a speed of sound (298.15 K, Frequency=3 MHz, Sing-around technique in a fixed-path interferometer, m1 = 0.1944) of 1512.8 ± 1.3 m/s, a speed of sound (298.15 K, Frequency=3 MHz, Sing-around technique in a fixed-path interferometer, m1 = 0.245) of 1516.7 ± 1.3 m/s and a speed of sound (298.15 K, Frequency=3 MHz, Sing-around technique in a fixed-path interferometer, m1 = 0.2746) of 1519.2 ± 1.3 m/s. The speed of sound (298.15 K, Frequency=3 MHz, Sing-around technique in a fixed-path interferometer, m1 = 0.2975) was 1521.1 ± 1.3 m/s, the speed of sound (298.15 K, Frequency=3 MHz, Sing-around technique in a fixed-path interferometer, m1 = 0.3196) was 1522.6 ± 1.3 m/s and the speed of sound (298.15 K, Frequency=3 MHz, Sing-around technique in a fixed-path interferometer, m1 = 0.3477) was 1525 ± 1.4 m/s. The mass density (298.15 K, Vibrating tube method, m1 = 0.0494) was 998.48 ± 0.11 kg/m3, the mass density (298.15 K, Vibrating tube method, m1 = 0.0781) was 999.35 ± 0.12 kg/m3 and the mass density (298.15 K, Vibrating tube method, m1 = 0.1017) was 1000.09 ± 0.12 kg/m3. For the same molecule, the mass density (298.15 K, Vibrating tube method, m1 = 0.1227) was 1000.7 ± 0.13 kg/m3, the mass density (298.15 K, Vibrating tube method, m1 = 0.1469) was 1001.41 ± 0.14 kg/m3 and the mass density (298.15 K, Vibrating tube method, m1 = 0.1846) was 1002.51 ± 0.15 kg/m3. The mass density (298.15 K, Vibrating tube method, m1 = 0.1944) was 1002.74 ± 0.14 kg/m3, the mass density (298.15 K, Vibrating tube method, m1 = 0.245) was 1004.3 ± 0.18 kg/m3 and the mass density (298.15 K, Vibrating tube method, m1 = 0.2746) was 1004.99 ± 0.17 kg/m3. The mass density (298.15 K, Vibrating tube method, m1 = 0.2975) was 1005.61 ± 0.21 kg/m3, the mass density (298.15 K, Vibrating tube method, m1 = 0.3196) was 1006.38 ± 0.22 kg/m3 and the mass density (298.15 K, Vibrating tube method, m1 = 0.3477) was 1007.09 ± 0.21 kg/m3.
